Tested on: SU-DHL10 cells
Assay: RT2 Glucocorticoid signaling PCR array, SU-DHL10 (SUDHL10) cell line (Table 4d)
Type: cell-based
Conditions: SUDHL10, 4 days, vs DMSO
Description: Expression levels of (A). Sestrin; (B). TNF and (C) GILZ normalized to DMSO controls for each cell line with the indicated single agent or combination.

Compound	ADARB1 ΔΔCT	AK2 ΔΔCT	ARIDS8 ΔΔCT	ASPH ΔΔCT	CEBPA ΔΔCT	DDIT4 ΔΔCT	H6PD ΔΔCT	LOX ΔΔCT	NR3C1 ΔΔCT	PER2 ΔΔCT	SPHK1 ΔΔCT	STAT5B ΔΔCT	TNF ΔΔCT	VDR ΔΔCT
CCN(c1cc(-c2ccc(CN3CCOCC3)cc2)cc(C(=O)NCc2c(C)cc(C)[nH]c2=O)c1C)C1CCOCC1 [Compound 44]	0.073	−0.101	0.650	0.296	−1.026	1.444	1.221	1.164	0.527	0.441	0.231	0.027	−0.204	−0.714
C[C@]12C=CC(=O)C=C1CC[C@@H]1[C@@H]2[C@@H](O)C[C@@]2(C)[C@H]1CC[C@]2(O)C(=O)CO [Prednisolone, prednisolone]	2.234	−0.345	1.603	0.169	0.784	−1.212	0.844	−0.505	0.256	−0.204	−0.279	0.719	0.221	−0.245

Source: patent publication US10456407B2, “Combination therapy for treating cancer” (Epizyme, Inc., priority 2015, dated 2019)
